Measured values from patent US20130109682A1, “CYCLIC ETHER COMPOUNDS USEFUL AS KINASE INHIBITORS” (NOVARTIS AG, priority 2010, published 2013).

Columns and labels:
KDR kinase = KDR kinase (Homo sapiens, UniProt P35968); test: KDR kinase inhibition assay (LanthaScreen TR-FRET); format: biochemical; conditions: TR-FRET assay
Method: KDR Kinase Inhibition Assay
LanthaScreen™ is the detection of Time-Resolved Fluorescence Resonance Energy Transfer (TR-FRET) using lanthanide chelates to measure interactions between various binding partners. The application of TR-FRET to assay kinase activity was first described by Mathis (1995). A TR-FRET assay was used to measure KDR kinase inhibitory activity. The assay panel was run on a Biomek FX liquid handling workstations. To the assay plates containing 50 nL compound or control solutions, 4.5 μL of buffer A (50 mM TRIS-HCl pH 7.4, 2 mM DTT, 0.02% Tween 20, 0.02 mM Na3VO4, H2O nanpure) including a generic concentration of ATP (2 μM f.c.) was added per well, followed by 4.5 μL of buffer B (4 uM ATP in Buffer A) including a generic concentration of polyEAY (50 nM f.c.), KDR kinase, and divalent cations. Final concentration of kinase and cations were: [KDR kinase]=0.38 nM, [Mg]=10 mM, [Ca]=1 mM. After 1 hour of incubation the kinase reactions were stopped by the addition of 4.5 μL of stop solution D (50 mM EDTA, 20 mM TRIS-HCl pH 7.4, 0.04% NP-40) immediately followed by 4.5 μL of buffer A (50 mM TRIS-HCl pH 7.4, 2 mM DTT, 0.02% Tween 20, 0.02 mM Na3VO4, H2O nanpure) including the Tb-labeled P-20 antibody to give a total detection volume of 18 μL. After an incubation time of 45 min in the dark, the plates were transferred into the Pherastar fluorescence reader for counting. The effect of compound on the enzymatic activity was obtained from the linear progress curves and determined from one reading (end point measurement).

GSK3β = GSK3β (Homo sapiens, UniProt P49841); test: GSK3β ATP depletion assay; format: biochemical; conditions: ATP depletion assay; read-out: GSK3b IC50
Sequence of GSK3β (P49841 whole entry, species assumed): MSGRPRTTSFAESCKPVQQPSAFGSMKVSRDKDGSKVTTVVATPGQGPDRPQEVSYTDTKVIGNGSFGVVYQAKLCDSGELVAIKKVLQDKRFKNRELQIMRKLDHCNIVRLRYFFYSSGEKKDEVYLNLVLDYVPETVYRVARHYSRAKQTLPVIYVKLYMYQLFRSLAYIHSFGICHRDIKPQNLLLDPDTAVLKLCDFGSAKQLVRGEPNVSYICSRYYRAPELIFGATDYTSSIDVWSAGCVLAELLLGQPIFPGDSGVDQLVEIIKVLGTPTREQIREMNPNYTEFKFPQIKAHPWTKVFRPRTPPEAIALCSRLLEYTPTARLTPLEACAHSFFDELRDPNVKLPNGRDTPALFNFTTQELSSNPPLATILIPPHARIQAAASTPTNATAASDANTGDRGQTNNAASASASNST
In short: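 Kinase activity is read as ATP consumption: luciferase luminescence reports the ATP remaining once roughly half of the 2 μM ATP is used. Reaction mix: 5 nM GSK3β, 10 μM b-CREB peptide, 50 mM Tris pH 7.5, 15 mM MgCl2, 1 mM DTT, 0.1% BSA, 2.5% DMSO. Enzyme and peptide are preincubated 15 min before ATP is added.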

[1] = test system: KMS11 (human myeloma cell line); test: Cell proliferation assay (CellTiter-Glo), KMS11; format: cell-based; conditions: Homo sapiens, KMS-11; KMS11 cells, cell proliferation; read-out: KMS11-Luc EC50
In short: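 EC50 derived from CellTiter-Glo luminescence after 3-day exposure at 37° C. Compound was diluted to 2× in medium and added to an equal volume of cells. KMS11 myeloma cells were plated on assay day at 2000/well in IMDM with 10% FBS and sodium pyruvate.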

PIM2 = PIM2 (Homo sapiens, UniProt Q9P1W9); test: Pim 2 AlphaScreen assay (high ATP); format: biochemical; conditions: read-out: Pim2 IC50
Sequence of PIM2 (Q9P1W9 whole entry): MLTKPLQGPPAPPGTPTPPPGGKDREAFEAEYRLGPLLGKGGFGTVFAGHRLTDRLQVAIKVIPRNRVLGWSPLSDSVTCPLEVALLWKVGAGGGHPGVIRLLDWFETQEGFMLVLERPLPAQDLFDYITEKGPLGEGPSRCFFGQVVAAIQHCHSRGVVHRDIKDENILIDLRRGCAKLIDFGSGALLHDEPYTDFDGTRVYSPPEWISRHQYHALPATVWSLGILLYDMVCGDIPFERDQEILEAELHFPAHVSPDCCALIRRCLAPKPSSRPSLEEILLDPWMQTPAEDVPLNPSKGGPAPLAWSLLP
In short: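 IC50 values rest on detection of phosphorylated Bad peptide: after a ~2 h kinase reaction, an EDTA stop buffer containing anti-phospho Ser/Thr antibody, Protein A and streptavidin AlphaScreen beads was added and read after overnight dark incubation. ATP was high (11-125× Km), with 2.5% DMSO in pH 7.5 Hepes buffer containing MgCl2, BSA, Tween-20 and DTT.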

Sequence of KDR kinase (P35968 20-1356): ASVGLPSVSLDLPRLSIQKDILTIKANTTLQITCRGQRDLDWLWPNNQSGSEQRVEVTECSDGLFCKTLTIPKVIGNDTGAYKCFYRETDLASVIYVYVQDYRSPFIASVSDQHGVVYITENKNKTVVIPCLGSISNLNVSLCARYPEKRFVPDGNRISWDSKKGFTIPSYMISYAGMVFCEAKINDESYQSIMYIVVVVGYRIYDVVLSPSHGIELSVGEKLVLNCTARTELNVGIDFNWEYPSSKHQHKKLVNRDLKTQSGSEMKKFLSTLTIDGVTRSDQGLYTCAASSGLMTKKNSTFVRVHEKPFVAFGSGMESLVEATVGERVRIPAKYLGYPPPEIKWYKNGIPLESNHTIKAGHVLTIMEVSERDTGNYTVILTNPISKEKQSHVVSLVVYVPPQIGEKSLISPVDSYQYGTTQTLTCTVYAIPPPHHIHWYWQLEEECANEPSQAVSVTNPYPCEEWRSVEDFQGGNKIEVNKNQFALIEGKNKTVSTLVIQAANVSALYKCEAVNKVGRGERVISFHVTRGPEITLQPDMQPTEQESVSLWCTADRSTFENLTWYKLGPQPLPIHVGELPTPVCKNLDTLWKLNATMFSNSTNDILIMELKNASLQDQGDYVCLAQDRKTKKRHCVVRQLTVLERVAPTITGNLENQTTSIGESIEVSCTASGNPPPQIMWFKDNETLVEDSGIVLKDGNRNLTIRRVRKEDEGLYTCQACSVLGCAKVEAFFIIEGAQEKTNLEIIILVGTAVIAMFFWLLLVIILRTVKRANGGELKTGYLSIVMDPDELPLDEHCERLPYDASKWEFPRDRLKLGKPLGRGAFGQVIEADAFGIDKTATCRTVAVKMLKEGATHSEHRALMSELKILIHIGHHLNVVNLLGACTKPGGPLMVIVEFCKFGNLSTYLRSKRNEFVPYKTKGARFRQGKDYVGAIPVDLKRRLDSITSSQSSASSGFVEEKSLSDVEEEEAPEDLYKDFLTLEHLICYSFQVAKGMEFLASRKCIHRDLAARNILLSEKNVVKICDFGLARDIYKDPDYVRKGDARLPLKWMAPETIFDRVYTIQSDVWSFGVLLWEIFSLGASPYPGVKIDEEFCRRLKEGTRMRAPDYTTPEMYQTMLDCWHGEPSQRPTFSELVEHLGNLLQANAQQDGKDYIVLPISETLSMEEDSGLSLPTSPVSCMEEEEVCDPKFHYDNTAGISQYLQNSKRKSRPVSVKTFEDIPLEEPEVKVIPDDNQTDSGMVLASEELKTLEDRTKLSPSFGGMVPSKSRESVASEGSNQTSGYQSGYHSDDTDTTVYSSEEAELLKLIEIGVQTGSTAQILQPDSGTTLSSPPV

CCC[C@H]1O[C@@H](c2ccncc2NC(=O)c2nc(-c3ccccc3)cnc2N)C[C@@H](O)[C@@H]1O [Example 340, 3-amino-N-(4-((2R,4R,5S,6R)-4,5-dihydroxy-6-propyltetrahydro-2H-pyran-2-yl)pyridin-3-yl)-6-phenylpyrazine-2-carboxamide]
IC50 (KDR kinase): 130 nM | IC50 (GSK3β): 0.9 nM | EC50 [1]: 990 nM | IC50 (PIM2): 3650 nM

CC[C@@H]1O[C@H](c2ccncc2NC(=O)c2nc(-c3ccccc3)cnc2N)C[C@H](N)[C@H]1O [Example 342, 3-amino-N-(4-((2S,4S,5R,6S)-4-amino-6-ethyl-5-hydroxytetrahydro-2H-pyran-2-yl)pyridin-3-yl)-6-phenylpyrazine-2-carboxamide]
IC50 (KDR kinase): 510 nM | IC50 (GSK3β): 39 nM | EC50 [1]: 770 nM | IC50 (PIM2): 1370 nM

Nc1ncc(-c2ccccc2)nc1C(=O)Nc1cnccc1[C@H]1C[C@@H](N)[C@@]2(O)CCC[C@H]2O1 [Example 183, 3-amino-N-(4-((2R,4R,4aS,7aR)-4-amino-4a-hydroxyoctahydrocyclopenta[b]pyran-2-yl)pyridin-3-yl)-6-phenylpyrazine-2-carboxamide]
IC50 (KDR kinase): 6.8 nM | IC50 (GSK3β): 4.4 nM | EC50 [1]: 1570 nM | IC50 (PIM2): 76.6 nM

Nc1ncc(-c2ccccc2)nc1C(=O)Nc1cnccc1[C@@H]1C[C@H](N)[C@]2(O)CCC[C@@H]2O1 [Example 185, 3-amino-N-(4-((2S,4S,4aR,7aS)-4-amino-4a-hydroxyoctahydrocyclopenta[b]pyran-2-yl)pyridin-3-yl)-6-phenylpyrazine-2-carboxamide]
IC50 (KDR kinase): 2000 nM | IC50 (GSK3β): 670 nM | EC50 [1]: 9390 nM | IC50 (PIM2): 6430 nM

C[C@]1(O)[C@H](N)C[C@H](c2ccncc2NC(=O)c2nc(-c3ccccc3)cnc2N)O[C@@H]1C1CC1 [Example 344, 3-amino-N-(4-((2R,4R,5S,6R)-4-amino-6-cyclopropyl-5-hydroxy-5-methyltetrahydro-2H-pyran-2-yl)pyridin-3-yl)-6-phenylpyrazine-2-carboxamide]
IC50 (KDR kinase): 58 nM | IC50 (GSK3β): 29 nM | EC50 [1]: 870 nM | IC50 (PIM2): 106 nM

Nc1ncc(-c2ccccc2)nc1C(=O)Nc1cnccc1[C@H]1C[C@@H](N)[C@H]2CCC[C@H]2O1 [Example 199, 3-amino-N-(4-((2R,4R,4aR,7aR)-4-aminooctahydrocyclopenta[b]pyran-2-yl)pyridin-3-yl)-6-phenylpyrazine-2-carboxamide]
IC50 (KDR kinase): 62 nM | IC50 (GSK3β): 7.6 nM | EC50 [1]: 590 nM | IC50 (PIM2): 102 nM

CC(C)(C)[C@H]1O[C@@H](c2ccncc2NC(=O)c2nc(-c3ccccc3)cnc2N)C[C@H](N)[C@@H]1O [Example 286, 3-amino-N-(4-((2R,4S,5S,6R)-4-amino-6-tert-butyl-5-hydroxytetrahydro-2H-pyran-2-yl)pyridin-3-yl)-6-phenylpyrazine-2-carboxamide]
IC50 (KDR kinase): 180 nM | IC50 (GSK3β): 0.5 nM | EC50 [1]: 1970 nM | IC50 (PIM2): 64.9 nM

C[C@H]1O[C@@H](c2ccncc2NC(=O)c2nc(-c3ccccc3)cnc2N)C[C@@H](N)[C@]1(C)O [Example 228, 3-amino-N-(4-((2R,4R,5S,6R)-4-amino-5-hydroxy-5,6-dimethyltetrahydro-2H-pyran-2-yl)pyridin-3-yl)-6-phenylpyrazine-2-carboxamide]
IC50 (KDR kinase): 38 nM | IC50 (GSK3β): 13 nM | EC50 [1]: 2060 nM | IC50 (PIM2): 120 nM

C[C@@H]1O[C@H](c2ccncc2NC(=O)c2nc(-c3ccccc3)cnc2N)C[C@H](N)[C@@]1(C)O [Example 229, 3-amino-N-(4-((2S,4S,5R,6S)-4-amino-5-hydroxy-5,6-dimethyltetrahydro-2H-pyran-2-yl)pyridin-3-yl)-6-phenylpyrazine-2-carboxamide]
IC50 (KDR kinase): 790 nM | IC50 (GSK3β): 39 nM | EC50 [1]: 5870 nM | IC50 (PIM2): 3310 nM

CC(C)(C)[C@@H]1O[C@H](c2ccncc2NC(=O)c2nc(-c3ccccc3)cnc2N)C[C@@H](N)[C@H]1O [Example 227, 3-amino-N-(4-((2S,4R,5R,6S)-4-amino-6-tert-butyl-5-hydroxytetrahydro-2H-pyran-2-yl)pyridin-3-yl)-6-phenylpyrazine-2-carboxamide]
IC50 (KDR kinase): 1700 nM | IC50 (GSK3β): 6.4 nM | EC50 [1]: 5310 nM | IC50 (PIM2): 549 nM

CC(C)[C@H]1C[C@@H](N)C[C@@H](c2ccncc2NC(=O)c2nc(-c3ccccc3)cnc2N)O1 [Example 292, 3-amino-N-(4-((2S,4R,6R)-4-amino-6-isopropyltetrahydro-2H-pyran-2-yl)pyridin-3-yl)-6-phenylpyrazine-2-carboxamide]
IC50 (KDR kinase): 4300 nM | IC50 (GSK3β): 44 nM | EC50 [1]: 700 nM | IC50 (PIM2): 764 nM

Nc1ncc(-c2ccccc2)nc1C(=O)Nc1cnccc1[C@@H]1C[C@H](N)[C@@H](O)[C@H](C2CC2)O1 [Example 349, 3-amino-N-(4-((2S,4S,5R,6S)-4-amino-6-cyclopropyl-5-hydroxytetrahydro-2H-pyran-2-yl)pyridin-3-yl)-6-phenylpyrazine-2-carboxamide]
IC50 (KDR kinase): 2300 nM | IC50 (GSK3β): 100 nM | EC50 [1]: 540 nM | IC50 (PIM2): 2740 nM

Nc1ncc(-c2ccccc2)nc1C(=O)Nc1cnccc1[C@H]1C[C@@H](N)[C@H](O)[C@@H](C2CC2)O1 [Example 346, 3-amino-N-(4-((2R,4R,5S,6R)-4-amino-6-cyclopropyl-5-hydroxytetrahydro-2H-pyran-2-yl)pyridin-3-yl)-6-phenylpyrazine-2-carboxamide]
IC50 (KDR kinase): 28 nM | IC50 (GSK3β): 9.2 nM | EC50 [1]: 470 nM | IC50 (PIM2): 62.7 nM

CC[C@H]1O[C@@H](c2ccncc2NC(=O)c2nc(-c3ccccc3)cnc2N)C[C@@H](N)[C@@H]1O [Example 343, 3-amino-N-(4-((2R,4R,5S,6R)-4-amino-6-ethyl-5-hydroxytetrahydro-2H-pyran-2-yl)pyridin-3-yl)-6-phenylpyrazine-2-carboxamide]
IC50 (KDR kinase): 13 nM | IC50 (GSK3β): 12 nM | EC50 [1]: 150 nM | IC50 (PIM2): 49.1 nM

CC[C@@H]1O[C@H](c2ccncc2NC(=O)c2nc(-c3ccccc3)cnc2N)C[C@H](N)[C@@]1(C)O [Example 345, 3-amino-N-(4-((2S,4S,5R,6S)-4-amino-6-ethyl-5-hydroxy-5-methyltetrahydro-2H-pyran-2-yl)pyridin-3-yl)-6-phenylpyrazine-2-carboxamide]
IC50 (KDR kinase): 4400 nM | IC50 (GSK3β): 370 nM | EC50 [1]: 3170 nM | IC50 (PIM2): 7810 nM

C[C@@]1(O)[C@@H](N)C[C@@H](c2ccncc2NC(=O)c2nc(-c3ccccc3)cnc2N)O[C@H]1C1CC1 [Example 347, 3-amino-N-(4-((2S,4S,5R,6S)-4-amino-6-cyclopropyl-5-hydroxy-5-methyltetrahydro-2H-pyran-2-yl)pyridin-3-yl)-6-phenylpyrazine-2-carboxamide]
IC50 (KDR kinase): 3700 nM | IC50 (GSK3β): 570 nM | EC50 [1]: 2430 nM | IC50 (PIM2): 8020 nM

CC[C@H]1O[C@@H](c2ccncc2NC(=O)c2nc(-c3ccccc3)cnc2N)C[C@@H](N)[C@]1(C)O [Example 348, 3-amino-N-(4-((2R,4R,5S,6R)-4-amino-6-ethyl-5-hydroxy-5-methyltetrahydro-2H-pyran-2-yl)pyridin-3-yl)-6-phenylpyrazine-2-carboxamide]
IC50 (KDR kinase): 150 nM | IC50 (GSK3β): 120 nM | EC50 [1]: 1190 nM | IC50 (PIM2): 146 nM

CC(C)[C@@H]1O[C@H](c2ccncc2NC(=O)c2nc(-c3ccccc3)cnc2N)C[C@H](N)[C@H]1O [Example 240, 3-amino-N-(4-((2S,4S,5R,6S)-4-amino-5-hydroxy-6-isopropyltetrahydro-2H-pyran-2-yl)pyridin-3-yl)-6-phenylpyrazine-2-carboxamide]
IC50 (KDR kinase): 5100 nM | IC50 (GSK3β): 270 nM | EC50 [1]: 380 nM | IC50 (PIM2): 2770 nM

CC(C)(C)[C@H]1O[C@@H](c2ccncc2NC(=O)c2nc(-c3ccccc3)cnc2N)C[C@@H](N)[C@@H]1O [Example 354, 3-amino-N-(4-((2R,4R,5S,6R)-4-amino-6-tert-butyl-5-hydroxytetrahydro-2H-pyran-2-yl)pyridin-3-yl)-6-phenylpyrazine-2-carboxamide]
IC50 (KDR kinase): 62 nM | IC50 (GSK3β): 3.2 nM | EC50 [1]: 140 nM | IC50 (PIM2): 9 nM
